According to patent US20110212185A1, “WATER THAT EXPRESSES PATHOGEN-RESISTANCE GENES (PR GENE CLUSTERS) TO ENCODE PLANT IMMUNOPROTEINS, A METHOD OF PREVENTING PLANT DISEASES USING THE WATER, AND A DEVICE FOR PRODUCING THE WATER” (priority 2008, published 2011):

Legend:
[1] = system: plant body or plant cells; details: supplied directly to plant body or plant cells; 'or more'; cited from earlier work
carp = details: data sheet of Hokho lateral-row Oryzemate granular wettable powder; cited from earlier work
[2] = CLA chemiluminescence measurement of superoxide anion radicals in water; assay type: physicochemical; details: KO2 marker in FIG. 4; extinguished within several milliseconds
Procedure: The measurement of the superoxide anion radicals in water is performed in the following manner. […] Further, timings for collecting samples are set to immediately before the starting of reaction, 15 minutes after the start of reaction, and 30 minutes after the starting of reaction. At respective timings, 500 μl of aqueous solution in the reservoir is sampled using a micropipette and is added to 500 μl of 25 mM phosphoric acid potassium buffer solution (pH7.0) to which CLA is preliminarily added (1:1 mixture, total: 1 ml) and CLA luminescence is measured for 5 minutes after dropping the solution. The intensity of luminescence is indicated by relative luminescence unit (hereinafter referred to as rlu). […] Further, KO2 solution obtained by dissolving KO2 (potassium superoxide) in an organic solvent is added to CLA solution thus preparing a calibration curve of superoxide anion by chemiluminescence dependent on CLA. Generally, a method which dissolves KO2 in crown-ether-based organic solution and uses the solution for the determination of superoxide is used. However, to allow the reaction with CLA in aqueous solution in a non-hydrophobic environment, dimethylsulfoxide (DMSO) is used as organic solvent. Using this method, CLA luminescence by adding KO2 solution is induced whereby the calibration curve of superoxide anion radicals is prepared.

Row | Compound | concentration necessary to actually confirm the expression of the genes [1] | other results
1 | OO [hydrogen peroxide] | 2 to 10 mM | –
2 | C=CCOC1=NS(=O)(=O)c2ccccc21 [probenazole] | – | LC50 value (48 hours) for carp (carp): 8 ppm
3 | O=C(O)c1ccccc1O [salicylic acid] | 0.1 to 0.5 mM | –
4 | Potassium superoxide [KO2] | – | time for which emission of light is observed after dropping into water [2]: < 2 s
